According to US9717721B2, “Use of aryl-quinolin derivatives as inhibitors of vasculogenic mimicry” (TaiRx Inc., priority 2015, dated 2017):

Legend:
[1] = tested on: SK-MEL-28 aggressive human melanoma cells; test: Loss of pre-formed VM network in SK-MEL-28 cells on MATRIGEL; format: cell-based; settings: 100 nM
Protocol: TRX-818 M1 (i.e., compound No. 38) structurally similar compounds were tested for their effect on inhibition of vasculogenic mimicry. Aggressive human melanoma (SK-MEL-28 from ATCC®; 7.5×10^4 mL medium) cells were seeded onto a three-dimensional polymerized MATRIGEL™-coated 24-well plate. After 18 h of cell seeding, VM network was formed. The medium was then replaced with negative controls (untreated and DMSO treated controls), a positive control (100 nM of TRX-818M1) or 100 nM of each testing compound.

[2] = tested on: C8161 aggressive melanoma cells; test: VM network formation in three-dimensional MATRIGEL, C8161 cells; format: cell-based, human
Protocol: (§1) Aggressive human melanoma (C8161 or SK-MEL28; 1×10^5) cells were seeded into a three-dimensional polymerized MATRIGEL™ (75 μl) for VM network analysis. C8161 or SK-MEL28 cells were treated for 24 h with 0.5, 1, 5, 10, 25 or 50 or 100 nM of TRX-818 at 5 or 24 h after cell attachment. Another set of melanoma cells were seeded onto a plastic dish and treated for the same amount of time before the cell viability of C8161 or SK-MEL28 cells was determined using the Guava Nexin Assay (Millipore, USA).
The VM network image was taken using a confocal laser scanning microscope equipped with an environmental, chamber to track the response of cancer cells to the test compound. The images were then digitized and subsequently analyzed using the Angiosys software. Four images per sample were analyzed to quantify the number of junctions and total tubule length of VM formation. Changes were presented in percentage relative to the vehicle control. Sterile deionized water (tissue-culture grade) was used as the vehicle control.
(§2) Aggressive human melanoma (C8161, 7.5×10^4) cells were seeded as disclosed in Example 1. C8161 cells were treated tor 4 h or 24 h with 0.3, 1 or 5 nM of TRX-818M1. Another set of melanoma cells were seeded onto a plastic dish and treated for the same amount of time before the cell viability of C8161 cells was determined.

[3] = tested on: C8161 cells; test: Cell viability of C8161 cells (Guava Nexin Assay); format: cell-based; settings: higher concentrations in the nM range
Protocol: as §1, §2

[4] = tested on: HCT-116 orthotopic human colon cancer xenograft; test: HCT-116 orthotopic human colon cancer xenograft model; format: in vivo, mice; settings: 50 mg/kg Q4D×3, i.p.
Protocol: The inhibitory effect of TRX-818 on tumor growth and VM formation of HCT-116, a highly metastatic colon tumor, was examined in a HCT-116 orthotopic xenograft model. The effect of TRX-818 was evaluated on the formation of the vascular or vascular-like (vasculogenic mimicry, VM) network by immunohistochemistry staining (IHC) in orthotopic xenograft human colon cancer model inoculated with HCT116 colon cancer cell lines
Six groups were set in this study (ten mice/group). There were: Group 1, TRX-818 at 20 mg/kg given as oral administration; Group 2, TRX-818 at 50 mg/kg given as oral administration; Group 3, TRX-818 at 100 mg/kg given as oral administration; Group 4, TRX-818 at 20 mg/kg given as intravenous injection; Group 5, Irinotecan at 50 mg/kg given as intraperitoneal injection; Group 6, vehicle group. Dose schedule for G1, G2, G3 and G6 was QD×28 and for G4 was QOD×7. Body weights were monitored for safety evaluation. Tumor size and tumor weight were measured at the end of in-life study. The percentage of tumor growth inhibition (TGI %) was calculated at the termination of the study for anti-tumor effect evaluation. The average body weight of study mice on Day 1 was ˜20 gram and decreased to ˜17-19 gram at the end of study (Day 42)
At the end of 28-day dosing, CO2 anesthesia (1 min) followed by cervical dislocation was used for mice euthanasia in the study prior to tumors and lungs excision. First, a ventral midline incision was made and colon with primary tumor was excised and collected. The tumor collection was completed in 3 minutes after euthanasia. The tissues were rinsed with PBS to remove the blood before fixation.
The number of channels with CD31^+/red blood cell (RBC)^+ or CD31^−/RBC^+ were counted on the whole section of each sample in each group, and the number of vessels with CD31 positive or negative staining were counted based on 5 light fields (200×) under microscope. The vascular network represented by the CD31^+/RBC^+ staining whereas the VM network represented by CD31^−/RBC^+ staining, because the VM formation is independent of vascular endothelial cells. The scoring was conducted by blinded, objective observer.

Compound | loss of VM network compared to negative controls ([1]; 5 h post treatment) | loss of VM network compared to negative controls ([1]; 24 h post treatment) | concentration effective as vascular disrupting agent [2] [nM] | VM network formation ([2]; all tested concentrations) | cell death [3] | Average number of channels (CD31−/RBC+, VM) in the whole tumor section per group, Mean ± SEM [4]
O=c1cc(-c2cccc(OP(=O)(O)O)c2)[nH]c2ccc(N3CCCC3)cc12 [Compound 147, 3-(4-Oxo-6-(pyrrolidin-1-yl)-1,4-dihydroquinolin-2-yl)phenyl dihydrogen phosphate] | mild loss of VM network | marked loss of VM network | – | – | – | –
COc1cc2c(cc1O)N=C(c1ccccc1F)CC2=O [Compound 43, 2-(2-Fluorophenyl)-7-hydroxy-6-methoxyquinolin-4-one] | mild loss of VM network | marked loss of VM network | – | – | – | –
COc1ccc2[nH]c(-c3cccc(F)c3)cc(=O)c2c1O [TRX-818M1, 2-(3-Fluorophenyl)-5-hydroxy-6-methoxyquinolin-4-one] | mild loss of VM network | marked loss of VM network | ~0.3 | inhibited | induced cell death | –
O=c1cc(-c2cc(O)cc(F)c2)[nH]c2ccc(N3CCCC3)cc12 [Compound C6] | mild loss of VM network | marked loss of VM network | – | – | – | –
CCc1c2c(nc3ccc(OC(=O)N4CCC(N5CCCCC5)CC4)cc13)-c1cc3c(c(=O)n1C2)COC(=O)[C@]3(O)CC [Irinotecan, reference compound] | – | – | – | – | – | 1.1 ± 0.4
O=c1cc(-c2cccc(F)c2)[nH]c2cc3c(cc12)OCO3 [Compound A6] | mild loss of VM network | marked loss of VM network | – | – | – | –
